From publication PMC13021292, “Safety, tolerability and pharmacokinetics of DNDI‐6148, a novel agent for leishmaniasis: A randomized, controlled, single ascending dose study in healthy participants” (British Journal of Clinical Pharmacology, 2025)

Assay: Plasma pharmacokinetics, first-in-human single ascending oral dose study
Experimental: This was a FIH, phase I, double‐blind, parallel, single ascending dose (SAD) study of DNDI‐6148 arginine monohydrate, administered as an oral suspension to healthy male participants. Cohorts 1–8 each included eight participants and were administered 10, 20, 40, 80, 160, 220, 300 or 380 mg (free form) of DNDI‐6148 (in six participants) or placebo (two participants).
At the clinical site, a suspension was prepared extemporaneously by the pharmacist within 24 h prior to administration to participants (the timepoint for which stability data of the suspension were available). The IP powder was suspended in 30 mL ORA‐Sweet® (Paddock Laboratories, LLC, Minneapolis, USA) for taste and colour masking. Participants were administered between 4 and 25 mL of the suspensions, followed by the ingestion of 250 mL tap water. Opaque precision syringes were used to administer the solutions to minimize the risk of unblinding. To preclude any dietary effects on the PK of DNDI‐6148, participants fasted for 9 h before they received the IP or placebo. Treatments were administered under the supervision of the investigator at approximately 8 a.m. on Day 1.
Blood samples (6 mL per time point) for pharmacokinetic analyses were collected on Day 1 pre‐dose and at the following post‐dose time points: 0.5,1, 1.5 (cohorts 1–4 only), 2, 2.5, 3, 4, 5 (cohorts 5–8 only), 6, 9, 12, 24, 48 and 72 h. […] Within 30 min of blood collection, blood samples were centrifuged at 1500g for 10 min at 4 °C and 500 μL of plasma were transferred into pre‐labelled polypropylene tubes prefilled with phosphoric acid 2% (1:1, v:v). Tubes were capped immediately for each time point, and the plasma was frozen in an upright position at −80 °C for storage.
Concentrations of DNDI‐6148 were determined in acidified plasma and acidified urine/BSA mixture using a validated internally standardized liquid chromatography–tandem mass spectrometry (LC–MS/MS) assay with deuterated d4‐DNDI‐6148 as an internal standard. The lower limit of quantitation (LOQ) for DNDI‐6148 was 1 ng/mL in plasma and 10 ng/mL in urine.
Values that were below the LOQ before the first concentration equal or above LOQ were set to zero. Other values below the LOQ were not used to calculate the PK parameters. The area under the plasma concentration‐time curve from time zero (pre‐dose) to the time of last quantifiable concentration (AUC0‐last) was calculated using the linear‐log trapezoidal rule. Elimination half‐life (t1/2) was calculated by the equation ln2/λz, after visual inspection of the plasma concentration‐time profiles (considering a minimum of 3 data points, including the last measurable data point and excluding Cmax).
PK parameters were derived from plasma concentration vs. time data using non‐compartmental analysis in Phoenix WinNonlin® 8.1 (Certara Inc., Princeton, NJ, USA). Plasma concentration vs. time data and PK parameters were listed and summarized by dose level, using descriptive statistics. Mean concentrations were calculated only if at least ⅔ of the individual concentrations were above the lower LOQ (LLOQ). […] Planned sampling times were used to summarize plasma concentration data; actual sampling times were used in the derivation of PK parameters.

## Cc1c(C(=O)Nc2ccc3c(c2)B(O)OC3)nnn1-c1ccccn1 [DNDI‐6148]
10 mg single oral dose, Mean
  t1/2: 12.93 h
  tmax: 4 h
20 mg single oral dose, GM
  CL/F: 2.76 L/h
  Cmax: 292 ng/mL
  Vd/F: 57.51 L
  t1/2: 14.42 h
20 mg single oral dose, Mean
  CL/F: 2.84 L/h
  Cmax: 296 ng/mL
  Vd/F: 57.82 L
  t1/2: 14.73 h
  tmax: 4 h
40 mg single oral dose, GM
  CL/F: 2.17 L/h
  Cmax: 585 ng/mL
  Vd/F: 61.18 L
  t1/2: 19.52 h
40 mg single oral dose, Mean
  CL/F: 2.36 L/h
  Cmax: 598 ng/mL
  Vd/F: 64.01 L
  t1/2: 19.91 h
  tmax: 5 h
80 mg single oral dose, GM
  CL/F: 2.17 L/h
  Cmax: 1011 ng/mL
  Vd/F: 69.86 L
  t1/2: 22.31 h
80 mg single oral dose, Mean
  CL/F: 2.51 L/h
  Cmax: 1021 ng/mL
  Vd/F: 71.15 L
  t1/2: 25.43 h
  tmax: 9 h
160 mg single oral dose, GM
  CL/F: 2.65 L/h
  Cmax: 1815.3 ng/mL
  Vd/F: 68.6 L
  t1/2: 17.92 h
160 mg single oral dose, Mean
  CL/F: 2.83 L/h
  Cmax: 1825.3 ng/mL
  Vd/F: 70.79 L
  t1/2: 18.28 h
  tmax: 5 h
220 mg single oral dose, GM
  CL/F: 2.42 L/h
  Cmax: 2285.4 ng/mL
  Vd/F: 80.62 L
  t1/2: 23.10 h
220 mg single oral dose, Mean
  Cmax: 2512.3 ng/mL
  Vd/F: 81.32 L
  t1/2: 24.17 h
  tmax: 5.50 h
300 mg single oral dose, GM
  CL/F: 3.02 L/h
  Cmax: 2959.3 ng/mL
  Vd/F: 99.99 L
  t1/2: 22.91 h
  tmax: 5.12 h
300 mg single oral dose, Mean
  CL/F: 3.28 L/h
  Cmax: 3073.5 ng/mL
  Vd/F: 104.45 L
  t1/2: 23.39 h
  tmax: 5.00 h
380 mg single oral dose, GM
  CL/F: 2.22 L/h
  Cmax: 3487.2 ng/mL
  Vd/F: 79.44 L
  t1/2: 24.76 h
  tmax: 5.28 h
380 mg single oral dose, Mean
  CL/F: 2.26 L/h
  Cmax: 3606 ng/mL
  Vd/F: 79.82 L
  t1/2: 25.46 h
  tmax: 5.50 h
10 and 20 mg doses
  GM half‐life in plasma: around 13 h
All dose levels
  median tmax, generally: 4 to 6 h
Higher doses
  GM half‐life in plasma: around 20 h
